# Test results as given in patent US20070021414A1, “1-'2-(4-Hydroxyphenyl)-2-hydroxyethyl!-piperidin-4-ol compounds as nmda receptor antagonists” (PFIZER, INC., priority 2003, published 2007).
# Where a name gives a salt, the structure may show the parent alone.
# Tested on: not given
# Experiment: not given
# Conditions: not given
row,Compound,melting point
1,Oc1ccc(C(O)CN2CCC(O)(c3cccc(F)c3)CC2)cc1 (stereo not drawn),154.2 °C
2,COCc1ccc(C2(O)CCN(CC(O)c3ccc(O)c(C)c3)CC2)cc1 (stereo not drawn),164.4 °C
3,COc1ccc(C2(O)CCN(CC(O)c3cc(C)c(O)cc3C)CC2)cn1 (stereo not drawn),156.5 °C
4,Cc1cc(C(O)CN2CCC(O)(c3cccc(F)c3)CC2)c(F)cc1O (stereo not drawn),161.7 °C
5,CCCOc1ccc(C2(O)CCN(CC(O)c3ccc(O)c(C)c3)CC2)cn1 (stereo not drawn),187.4 °C
6,COc1ccc(C2(O)CCN(CC(O)c3ccc(O)c(Cl)c3)CC2)cn1.Cl (stereo not drawn),214.3 °C
7,Cc1cc(C(O)CN2CCC(O)(c3ccc4c(c3)COCC4)CC2)ccc1O (stereo not drawn),178.3 °C
8,Oc1ccc(C(O)CN2CCC(O)(c3ccc4c(c3)COCC4)CC2)c(F)c1 (stereo not drawn),186.1 °C
9,COc1ccc(C2(O)CCN(CC(O)c3cc(F)c(O)cc3F)CC2)cn1 (stereo not drawn) (as salt: hydrochloride),199.5 °C

# The next lines start with the values.
row,melting point,Compound
1,198.8 °C,COc1ccc(C2(O)CCN(CC(O)c3ccc(O)cc3)CC2)cn1 (stereo not drawn)
2,169.6 °C,COCc1ccc(C2(O)CCN(CC(O)c3ccc(O)cc3)CC2)cc1 (stereo not drawn)
3,163.7 °C,Cc1cnc(C2(O)CCN(CC(O)c3ccc(O)c(C)c3)CC2)s1 (stereo not drawn)
4,189.3 °C,CCOc1ccc(C2(O)CCN(CC(O)c3ccc(O)c(C)c3)CC2)cn1 (stereo not drawn)
5,166.3 °C,COCc1ccc(C2(O)CCN(CC(O)c3cc(C)c(O)cc3C)CC2)cc1 (stereo not drawn)
6,183.6 °C,COc1ccc(C2(O)CCN(CC(O)c3cc(C)c(O)cc3F)CC2)cn1 (stereo not drawn)
7,172.3 °C,COc1ccc(C2(O)CCN(CC(O)c3ccc(O)c(C)c3)CC2)nc1F (stereo not drawn)
8,190.5 °C,COc1ccc(C2(O)CCN(CC(O)c3ccc(O)cc3Cl)CC2)cn1 (stereo not drawn)
9,176 °C,COc1ccc(C2(O)CCN(CC(O)c3ccc(O)c(C)c3)CC2)cn1 (stereo not drawn)
10,186.1 °C,Oc1ccc(C(O)CN2CCC(O)(c3cccc(F)c3)CC2)c(F)c1 (stereo not drawn)
11,207 °C,Oc1cc(F)c(C(O)CN2CCC(O)(c3cccc(F)c3)CC2)cc1F (stereo not drawn) (as salt: hydrochloride)

# Target: T1, HERG potassium channel (Homo sapiens, UniProt Q12809)
# T1 construct: expressed in transfected cells; host or cells: HEK293S cells (membrane homogenate)
# T1 sequence (Q12809 whole entry): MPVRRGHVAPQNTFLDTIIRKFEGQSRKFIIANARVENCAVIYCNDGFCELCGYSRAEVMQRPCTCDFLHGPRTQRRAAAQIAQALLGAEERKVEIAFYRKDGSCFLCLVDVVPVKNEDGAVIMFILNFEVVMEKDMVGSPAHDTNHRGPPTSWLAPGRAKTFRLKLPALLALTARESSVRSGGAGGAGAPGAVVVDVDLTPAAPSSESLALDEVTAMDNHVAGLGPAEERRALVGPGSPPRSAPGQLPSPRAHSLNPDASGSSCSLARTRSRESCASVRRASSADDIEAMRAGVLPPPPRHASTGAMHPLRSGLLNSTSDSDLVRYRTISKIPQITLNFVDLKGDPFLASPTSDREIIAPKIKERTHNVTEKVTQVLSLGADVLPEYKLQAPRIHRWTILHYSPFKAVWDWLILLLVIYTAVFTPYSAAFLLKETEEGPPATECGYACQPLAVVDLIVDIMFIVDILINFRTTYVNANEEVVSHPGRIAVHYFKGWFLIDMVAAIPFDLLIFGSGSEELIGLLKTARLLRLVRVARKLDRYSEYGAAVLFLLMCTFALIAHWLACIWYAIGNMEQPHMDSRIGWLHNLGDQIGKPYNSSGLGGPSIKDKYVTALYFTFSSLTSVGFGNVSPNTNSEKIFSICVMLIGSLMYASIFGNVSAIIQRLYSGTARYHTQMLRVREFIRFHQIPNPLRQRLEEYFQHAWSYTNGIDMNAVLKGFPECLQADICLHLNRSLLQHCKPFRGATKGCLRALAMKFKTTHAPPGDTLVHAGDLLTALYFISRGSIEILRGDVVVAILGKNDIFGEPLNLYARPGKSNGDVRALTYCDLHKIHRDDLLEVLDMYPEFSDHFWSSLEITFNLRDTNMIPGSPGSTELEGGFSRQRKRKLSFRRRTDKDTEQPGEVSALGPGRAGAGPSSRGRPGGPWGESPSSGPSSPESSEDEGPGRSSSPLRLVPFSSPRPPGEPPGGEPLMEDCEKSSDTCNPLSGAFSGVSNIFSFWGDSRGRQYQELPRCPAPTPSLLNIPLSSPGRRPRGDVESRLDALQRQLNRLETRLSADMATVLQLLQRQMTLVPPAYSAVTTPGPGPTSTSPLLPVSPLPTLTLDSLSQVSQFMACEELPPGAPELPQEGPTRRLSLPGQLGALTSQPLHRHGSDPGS
# Experiment: Human Dofetilide Binding
# Conditions: ratio of [3H]-dofetilide binding Ki (HERG transfected HEK293S membranes) to NR2B binding Ki
# Protocol: Human BERG transfected HEK293S cells were prepared and grown in-house. The collected cells were suspended in 50 mM Tris-HCl (pH 7.4 at 4° C.) and homogenized using a hand held Polytron PT 1200 disruptor set at full power for 20 sec on ice. The homogenates were centrifuged at 48,000×g at 4° C. for 20 min. The pellets were then resuspended, homogenized, and centrifuged once more in the same manner. The final pellets were resuspended in an appropriate volume of 50 mM Tris-HCl, 10 mM KCl, 1 mM MgCl2 (pH 7.4 at 4° C.), homogenized, aliquoted and stored at −80° C. until use. An aliquot of membrane fractions was used for protein concentration determination using BCA protein assay kit (PIERCE) and ARVOsx plate reader (Wallac).
# Binding assays were conducted in a total volume of 200 μl in 96-well plates. Twenty μl of test compounds were incubated with 20 μl of [^3H]-dofetilide (Amersham, final 5 nM) and 160 μl of membrane homogenate (25 μg protein) for 60 minutes at room temperature. Nonspecific binding was determined by 10 μM dofetilide at the final concentration. Incubation was terminated by rapid vacuum filtration over 0.5% presoaked GF/B Betaplate filter using Skatron cell harvester with 50 mM Tris-HCl, 10 mM KCl, 1 mM MgCl2, pH 7.4 at 4° C. The filters were dried, put into sample bags and filled with Betaplate Scint. Radioactivity bound to filter was counted with Wallac Betaplate counter.
row,Compound,TI (Dofetilide Binding Ki [μM]/NR2B Binding Ki [nM]×1000)
1,Cc1cc([C@H](O)[C@H](C)N2CCC(O)(c3ccc(F)cc3)CC2)ccc1O [comparative compound A],220
